According to ChEMBL document CHEMBL1201862, “PubChem BioAssay data set” (2004):
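Compound exposure: 48 hours, 5 concentrations, 96-well plates. Here, GI50 denotes the concentration required for 50% inhibition of growth.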 Calls of active or inactive are those of the source. No stated cut-off is given here; in the data, active = GI50 up to about 1.1 µM and inactive = higher.

Legend:
Test in all cases: NCI anticancer screen, dose series, 48 h
RXF 393 = tested on: RXF 393
SF-539 = tested on: SF-539
M19-MEL = tested on: M19-MEL
SK-MEL-28 = tested on: SK-MEL-28
A549 = tested on: A549
OVCAR-8 = tested on: OVCAR-8
U-251 = tested on: U-251
NCI-H226 = tested on: NCI-H226
SN12C = tested on: SN12C
NCI-H23 = tested on: NCI-H23
OVCAR-5 = tested on: OVCAR-5
ACHN = tested on: ACHN
DLD-1 = tested on: DLD-1
SF-295 = tested on: SF-295
K562 = tested on: K562
EKVX = tested on: EKVX

Measured: GI50

CCN(CC)c1cccc2c1C1(O)CCC3(CC21)OCCCCO3 (stereo not drawn)
inactive: RXF 393 15.3 µM | SF-539 35.3 µM | M19-MEL 91.4 µM | SK-MEL-28 > 100 µM | A549 49 µM | OVCAR-8 44.9 µM | U-251 39.9 µM | NCI-H226 63.4 µM | SN12C 74.1 µM | NCI-H23 > 100 µM | OVCAR-5 > 100 µM | ACHN 91.8 µM | DLD-1 57.1 µM | SF-295 28.8 µM | K562 > 100 µM

CCNC(=O)O/N=C1\CCC2[C@@H]3CC=C4C[C@@H](OC5CCCCO5)CC[C@]4(C)C3CC[C@]12C (stereo partly drawn)
inactive: RXF 393 2.2 µM | SF-539 6.19 µM | M19-MEL 1.76 µM | SK-MEL-28 3.19 µM | A549 2.74 µM | OVCAR-8 3.9 µM | U-251 1.89 µM | EKVX 2.51 µM | SN12C 2.12 µM | NCI-H23 2.72 µM | OVCAR-5 2.48 µM | ACHN 1.45 µM | DLD-1 4.45 µM | SF-295 2.17 µM | K562 1.37 µM

CC(=O)c1cccc(NC(=O)/C(=N\NC(C)(C)C)c2c(O)c3ccccc3oc2=O)c1
inactive: RXF 393 > 100 µM | SF-539 > 100 µM | M19-MEL 84.7 µM | SK-MEL-28 > 100 µM | A549 > 100 µM | OVCAR-8 > 100 µM | EKVX > 100 µM | NCI-H226 > 100 µM | SN12C > 100 µM | NCI-H23 > 100 µM | ACHN > 100 µM | DLD-1 > 100 µM | SF-295 > 100 µM

O=C(CSc1nnc(Cc2ccccc2)o1)Nc1ccc(Cl)cc1Cl
inactive: RXF 393 > 100 µM | SF-539 > 100 µM | M19-MEL > 100 µM | SK-MEL-28 > 100 µM | A549 > 100 µM | OVCAR-8 > 100 µM | U-251 > 100 µM | NCI-H226 > 100 µM | SN12C > 100 µM | NCI-H23 > 100 µM | OVCAR-5 > 100 µM | ACHN > 100 µM | DLD-1 > 100 µM | SF-295 > 100 µM | K562 > 100 µM

Cc1ccc(C2=Nc3ccccc3[S+]([O-])C(c3ccc4c(c3)OCO4)C2)cc1 (stereo not drawn)
inactive: RXF 393 16.9 µM | SF-539 21.2 µM | M19-MEL 27 µM | SK-MEL-28 24.5 µM | A549 28.6 µM | OVCAR-8 20.5 µM | U-251 13 µM | EKVX 52 µM | NCI-H226 52.6 µM | SN12C 17.4 µM | NCI-H23 15.3 µM | ACHN 20.3 µM | DLD-1 12.3 µM | SF-295 40.1 µM | K562 27.7 µM
